# Laboratory results published in patent US7795226B2, “Control of radiation injury” (Biotempt B.V., priority 2006, dated 2010).
# How the values were obtained:
# [1] = tested on: gamma-irradiated mice; conditions: cited from earlier work; for protection against gamma-irradiation (in words): mouse, in vivo
# [2] = tested on: BALB/c mice exposed whole body to 10 Gy 137Cs-γ-irradiation; experiment: Whole body γ-irradiation (10 Gy), peptide 1.5 hours before irradiation; assay type: in vivo; conditions: 10 mg/kg i.p. 1.5 hours before 10 Gy; for Watery eyes / Weight loss: affected/total; for Mortality: dead/total
# Experimental: (§1) In the first experiment, 12-week-old female BALB/c mice were treated intraperitoneally with a single injection of either PBS (n=9) or with a peptide (LQGV (SEQ ID NO:117), VLPALP (SEQ ID NO:140), LPGCPRGVNPVVS (SEQ ID NO:114), MTRVLQGVLPALPQVVC (SEQ ID NO:113); n=8, 10 mg/kg). One and a half hours after the treatment, mice were exposed whole body to a single dose of 10 Gy ^137Cs-γ-irradiation. In the second experiment, 12-week-old female BALB/c mice were first exposed whole body to a single dose of 10 Gy ^137Cs-γ-irradiation and then 1.5 hours after the irradiation treated intraperitoneally with a single injection of either PBS (n=9) or with a peptide (n=8 or 9, 10 mg/kg).
# [3] = tested on: BALB/c mice exposed whole body to 10 Gy 137Cs-γ-irradiation; experiment: Whole body γ-irradiation (10 Gy), peptide 1.5 hours after irradiation; assay type: in vivo; conditions: 10 mg/kg i.p. 1.5 hours after 10 Gy; for Watery eyes / Weight loss: affected/total; for Mortality: dead/total
# Experimental: as §1
# [4] = tested on: LPS (E. coli 026:B6)-induced septic shock in BALB/c mice; experiment: LPS-induced septic shock, single dose of peptide; assay type: in vivo; conditions: single dose 5 mg/kg
# Experimental: (§2) Mice used in sepsis or septic shock experiments: Female BALB/c mice of eight to twelve weeks of age were used for all experiments. The animals were bred in our facility under specific pathogen-free conditions according to the protocols described in the […] of European Laboratory Animal Science Associations (FELASA) Working group on Animal Health (Laboratory Animals 28:1-24, 1994).
# (§3) Injection protocols: For the endotoxin model, BALB/c mice were injected i.p. with 150-300 μg LPS (E. coli 026:B6; Difco Lab., Detroit, Mich., USA). Control groups were treated with PBS i.p. only. To test the effect of peptides, they were dissolved in PBS and injected i.p. at predetermined points in time after LPS treatment.
# (§4) Mice were scored for sickness severity using the following measurement scheme: • 0 No abnormalities. • 1 Percolated fur, but no detectable behavior differences compared to normal mice. • 2 Percolated fur, huddle reflex, responds to stimuli (such as tap on cage), just as active during handling as healthy mouse. • 3 Slower response to tap on cage, passive or docile when handled, but still curious when alone in a new setting. • 4 Lack of curiosity, little or no response to stimuli, quite immobile. • 5 Labored breathing, inability or slow to self-right after being rolled onto back (moribund, sacrificed). • D Dead.
# A first set of septic shock experiments were set up to determine which of the peptides LQG, LQGV (SEQ ID NO:117), VLPALP (SEQ ID NO:140), VLPALPQ (SEQ ID NO:143), MTR, MTRV (SEQ ID NO:119), VVC or QVVC (SEQ ID NO:118) were capable of inhibiting lipopolysaccharide (LPS)-induced septic shock in mice by treating mice with a single dose of peptide at two hours after LPS treatment. Peptides were used at 5 mg/kg bodyweight. BALB/c mice were injected i.p. with escalating doses LPS (E. coli 026:B6; Difco Lab., Detroit, Mich. USA), predetermined to be leading to 80 to 100% mortality in 24 to 72 hours.
# To test the effect of peptide early in the development of shock, mice were treated at two hours or at 24 hours after treatment with varying doses of LPS by i.p. injection with test peptide at 5 mg/kg bodyweight.
# [5] = tested on: high dose LPS (E. coli 026:B6)-induced septic shock in BALB/c mice; experiment: high dose LPS-induced septic shock, peptide administered twice; assay type: in vivo; conditions: peptide twice (t = 2 and 24 hours) 5 mg/kg
# Experimental: as §2, §3, §4
# A second set of septic shock experiments were set up to determine which of the peptides LQG, LQGV (SEQ ID NO:117), VLPALP (SEQ ID NO:140), VLPALPQ (SEQ ID NO:143), MTR, MTRV (SEQ ID NO:119), VVC or AQG, AQGV (SEQ ID NO:120), LAG and LAGV (SEQ ID NO:121) were capable of inhibiting high dose LPS-induced septic shock in mice by treating mice with a double dose of peptide at two and 24 hours after LPS treatment. At each treatment, peptides were used at 5 mg/kg bodyweight. BALB/c mice were injected i.p. with high doses LPS (E. coli 026:B6; Difco Lab., Detroit, Mich. USA), predetermined to be leading to 80 to 100% mortality in 24 to 72 hours.
# [6] = tested on: LPS (E. coli 026:B6)-induced sepsis in BALB/c mice; experiment: endotoxin shock survival after early or late treatment with peptide; assay type: in vivo
# Experimental: as §2, §3
# A further set of septic shock experiments were set up to determine which of the peptides LQG, LQGV (SEQ ID NO:117), VLPALP (SEQ ID NO:140), VLPALPQ (SEQ ID NO:143), MTR, MTRV (SEQ ID NO:119), VVC or AQGV (SEQ ID NO:120) under study were most suited to be used early and/or late after or throughout the development of shock. For determining the percent of endotoxin shock survival after late or early treatment with peptide, BALB/c mice were injected i.p. with 300 μg LPS (E. coli 026:B6; Difco Lab., Detroit, Mich. USA), predetermined to be leading to 100% mortality in 48 hours without peptide treatment.
# To evaluate the effect of peptide treatment at an early or late point in time of development of shock, mice were treated at two hours or at 24 hours after LPS injection by i.p. injection with test peptide at 5 mg/kg bodyweight. The mice were followed for 84 hours instead of for 48 hours in the earlier experiments.
# [7] = tested on: cell-cycle marker pCDG and auxin-responsive marker DR5::GUS; experiment: Arabidopsis thaliana seedling cell-cycle analysis (GUS markers)
# Experimental: To further study anti-cell-cycle activity of various oligopeptides, a proliferation experiment in Arabidopsis Thaliana seedlings was performed. The aim was to test a group of 140 oligopeptides of varying length for their effect on plant marker gene expression during rapid growth when avid cell division occurs.
# The peptides were re-suspended in 1× Phosphate Buffer Saline (PBS) pH 8 to a final concentration of 5 mg/ml. The obtained solutions were then divided through 96-well round bottom plates (Corning Incorporated) at 40 microliters per well. Plates were stored before use at […] for four days. Seeds of Arabidopsis thaliana ecotype Ws-0 were surface sterilized in 2% commercial bleach (Gloria) for ten minutes and washed five times with sterile MQ water. The seeds were then re-suspended with 0.1% agar and plated on MS20 plates supplemented with 80 mg/l Kanamycin.
# The plates were placed at […] for two nights and then transferred to a climate room at […] and a 16/8 hours photoperiod. After four days of growth, the seedlings were transferred to 96-well plates containing the peptide solutions (four seedlings per well) and incubated for four and eight hours.
# For this experiment, Arabidopsis homozygous seedlings harboring two reporter genes fused to GUS were used. […] After incubation with the compounds, the seedlings were stained for GUS. The staining reaction was performed in 100 mM sodium phosphate buffer (pH 7.0) that contained 10 mM EDTA, 10% DMSO, 0.1% Triton X-100, 2 mM X-Gluc, 0.5 mM K3Fe(CN)6 and 0.5 mM K4Fe(CN)6 at […] for 16 hours. […] Seedlings were fixed and cleared in chloral hydrate solution for detailed microscopic observation and photography under a microscope equipped with DIC optics.
# Peptides were tested for an effect on marker gene expression on rapidly growing Arabidopsis young seedlings. This was monitored by changes on GUS distribution in different organs: root, root-hypocotyl transition zone and cotyledons.
molecule,measurement,setting,value
"C[C@]12CC[C@H]3[C@@H]([C@@H](O)C=C4C[C@@H](O)CC[C@@]43C)[C@@H]1CC[C@@H]2O [AET, 5-androstene-3B,7B, 17B-triol]",protection against gamma-irradiation (in words),[1],No protection was observed
"C[C@]12CC[C@H](O)CC1=CC[C@@H]1[C@@H]2CC[C@]2(C)C(=O)CC[C@@H]12 [DHEA, dehydroepiandrosterone]",protection against gamma-irradiation (in words),[1],No protection was observed
"C[C@]12CC[C@H]3[C@@H](CC=C4C[C@@H](O)CC[C@@]43C)[C@@H]1CC[C@@H]2O [Peptide 5-AED, 5-androstenediol]",dose reduction factor,"[1]; sc administration prior to WBI, from probit survival curves",1.3
LPGCPRGVNPVVS,Watery eyes,[2]; day 0 after irradiation,0/8
same,Weight loss,[2]; day 0 after irradiation,0/8
same,Mortality,[2]; day 0 after irradiation,0/8
same,Mortality,[2]; day 3 after irradiation,0/8
same,Watery eyes,[2]; day 4 after irradiation,1/8
same,Weight loss,[2]; day 4 after irradiation,8/8
same,Mortality,[2]; day 4 after irradiation,0/8
same,Mortality,[2]; day 5 after irradiation,0/8
same,Mortality,[2]; day 6 after irradiation,4/8
same,Mortality,[2]; day 7 after irradiation,8/8
same,Watery eyes,[3]; day 0 after irradiation,0/8
same,Weight loss,[3]; day 0 after irradiation,0/8
same,Mortality,[3]; day 0 after irradiation,0/8
same,Mortality,[3]; day 3 after irradiation,0/8
same,Watery eyes,[3]; day 4 after irradiation,0/8
same,Weight loss,[3]; day 4 after irradiation,8/8
same,Mortality,[3]; day 4 after irradiation,0/8
same,Mortality,[3]; day 5 after irradiation,0/8
same,Mortality,[3]; day 6 after irradiation,6/8
same,Mortality,[3]; day 7 after irradiation,8/8
MTRVLQGVLPALPQVVC [residues 41-57 of loop 2 of the beta-subunit of hCG],Watery eyes,[2]; day 0 after irradiation,0/8
same,Weight loss,[2]; day 0 after irradiation,0/8
same,Mortality,[2]; day 0 after irradiation,0/8
same,Mortality,[2]; day 3 after irradiation,0/8
same,Watery eyes,[2]; day 4 after irradiation,1/8
same,Weight loss,[2]; day 4 after irradiation,1/8
same,Mortality,[2]; day 4 after irradiation,0/8
same,Mortality,[2]; day 5 after irradiation,0/8
same,Mortality,[2]; day 6 after irradiation,7/8
same,Mortality,[2]; day 7 after irradiation,8/8
same,Watery eyes,[3]; day 0 after irradiation,0/9
same,Weight loss,[3]; day 0 after irradiation,0/9
same,Mortality,[3]; day 0 after irradiation,0/9
same,Mortality,[3]; day 3 after irradiation,0/9
same,Watery eyes,[3]; day 4 after irradiation,0/9
same,Weight loss,[3]; day 4 after irradiation,9/9
same,Mortality,[3]; day 4 after irradiation,0/9
same,Mortality,[3]; day 5 after irradiation,0/9
same,Mortality,[3]; day 6 after irradiation,5/9
same,Mortality,[3]; day 7 after irradiation,9/9
VVC,"mice scored D (dead), effect at t = 24 hours",[4]; LPS dose 7**,1
same,"mice scored D (dead), effect at t = 48 hours",[4]; LPS dose 7**,3
same,"mice with sickness score 1, effect at t = 48 hours",[4]; LPS dose 7**,1
same,"mice with sickness score 2, effect at t = 48 hours",[4]; LPS dose 7**,1
same,"mice with sickness score 3, effect at t = 24 hours",[4]; LPS dose 7**,2
same,"mice with sickness score 3, effect at t = 48 hours",[4]; LPS dose 7**,1
same,"mice with sickness score 4, effect at t = 24 hours",[4]; LPS dose 7**,1
same,"mice with sickness score 5, effect at t = 24 hours",[4]; LPS dose 7**,2
same,"mice with sickness score 2, effect at t = 48 hours",[4]; LPS dose 7*,4
same,"mice with sickness score 3, effect at t = 24 hours",[4]; LPS dose 7*,4
same,"mice with sickness score 4, effect at t = 24 hours",[4]; LPS dose 7*,2
same,"mice with sickness score 5, effect at t = 48 hours",[4]; LPS dose 7*,2
same,"mice with sickness score 1, effect at t = 48 hours",[4]; LPS dose 10,2
same,"mice with sickness score 2, effect at t = 24 hours",[4]; LPS dose 10,2
same,"mice with sickness score 2, effect at t = 48 hours",[4]; LPS dose 10,2
same,"mice with sickness score 3, effect at t = 24 hours",[4]; LPS dose 10,2
same,"mice with sickness score 4, effect at t = 24 hours",[4]; LPS dose 10,2
same,"mice with sickness score 5, effect at t = 48 hours",[4]; LPS dose 10,2
same,"mice with sickness score 1, effect at t = 48 hours",[5]; LPS dose 10.5,2
same,"mice with sickness score 2, effect at t = 24 hours",[5]; LPS dose 10.5,5
same,"mice with sickness score 2, effect at t = 48 hours",[5]; LPS dose 10.5,3
same,"mice with sickness score 1, effect at t = 48 hours",[5]; LPS dose 11,2
same,"mice with sickness score 2, effect at t = 24 hours",[5]; LPS dose 11,6
same,"mice with sickness score 2, effect at t = 48 hours",[5]; LPS dose 11,4
same,% Survival,"[6]; 0 hours, peptide 5 mg/kg 2 hours after LPS",100%
same,% Survival,"[6]; 0 hours, peptide 5 mg/kg 24 hours after LPS",100%
same,% Survival,"[6]; 14 hours, peptide 5 mg/kg 2 hours after LPS",100%
same,% Survival,"[6]; 14 hours, peptide 5 mg/kg 24 hours after LPS",100%
same,% Survival,"[6]; 24 hours, peptide 5 mg/kg 2 hours after LPS",100%
same,% Survival,"[6]; 24 hours, peptide 5 mg/kg 24 hours after LPS",100%
same,% Survival,"[6]; 48 hours, peptide 5 mg/kg 2 hours after LPS",80%
same,% Survival,"[6]; 48 hours, peptide 5 mg/kg 24 hours after LPS",100%
same,% Survival,"[6]; 84 hours, peptide 5 mg/kg 2 hours after LPS",50%
same,% Survival,"[6]; 84 hours, peptide 5 mg/kg 24 hours after LPS",100%
same,identified as useful peptide for treatment of radiation injury from cell-cycle studies in plants and in vitro proliferation studies,[7]; Results from Examples 9 and 10,useful
same,effect on cell-cycle marker (pCDG) and auxin-responsive marker (DR5::GUS) (in words),"[7]; seedlings incubated four and eight hours, 5 mg/ml peptide solution",clear effect on the tested markers
